Measured values from patent US8637521B2, “Substituted piperazin-2,5-diones and their use as multifunctional bioactive compounds” (priority 2006, dated 2014).
Square brackets hold non-standard residues; d marks the D form. Peptide text beside a SMILES is read from it. * marks the point of attachment. X1 = O=C(O)CC[C@@H]1NC(=O)[C@H](CCCCN*)NC1=O

Assays:
[1] = test system: hemopoietic precursor cells; assay: Exogenous spleen colonies from bone marrow irradiated ex vivo with 1 Gy; type: in vivo
Procedure: In this study, the method of exogenous spleen colonies was applied. A suspension of intact bone marrow cells was irradiated ex vivo in the dose of 1 Gy. Different doses of Neogen or cyclic peptides were injected IP, 1M, subcutaneous or introduced per os to lethally irradiated recipients within an hour after the injection of irradiated bone marrow. Colonies were counted on day 8. All data in each group was the mean of three tests.

[2] = biological target: μ-receptor (isolated guinea pig ileum, GPI) (Cavia porcellus, UniProt P97266); assay: Peripheral opioid activity: inhibition of electrically-induced contractions of isolated guinea pig ileum (GPI); conditions: for Value of pD2 (M ± m): negative logarithm of EC50; for EC50: read-out: Median EC50 in M, concentration reducing contraction amplitude by 50%, 5 replications
μ-receptor (isolated guinea pig ileum, GPI), sequence (P97266 whole entry): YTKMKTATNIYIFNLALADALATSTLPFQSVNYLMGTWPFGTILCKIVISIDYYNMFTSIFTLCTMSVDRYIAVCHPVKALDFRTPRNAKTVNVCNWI
Procedure: The segment of GPI about 1 cm long was placed into a 10-ml organ bath containing Krebs solution at 34° C. […] Resting tension of the organ was 1 g. The segment of GPI was stimulated by single pulses duration 1 ms with 0.1 Hz at 80 V. The solution with isolated organs was constantly aerated. The contractions were recorded in an isometrical mode by a sensor K 30 (Hugo Sachs Elektronic KG) with paper register Rikadenki-series (Japan).
The substances tested were dissolved in distilled water and added cumulatively to the organ bath at a volume of 5 to 30 mcl. Each subsequent substance was added after the isolated organs were washed 3 or 4 times for 12-15 min. On the basis of the data obtained, dose-effects curves were plotted and the activity of substances was expressed by IC50 or pD2. The pD2 index was equal to a negative decimal logarithm of the substance concentration causing a 50% of the maximal effect.
New dermorphin analogues were tested in the standard model of Guinea pig ileum binding test.
For confirmation of opioid activity, the specific antagonist naloxson was used in concentration of 10^−5M. Each molecule was tested in 5 independent replications and relative activity was calculated as negative logarithm of EC50 (pD2).

Row | Structure (SMILES) | % stimulation ([1]; 100 μg/kg per/os) [%] | Colony count ([1]; 100 μg/kg per/os) | % stimulation ([1]; 100 μg/kg s/c) [%] | Colony count ([1]; 100 μg/kg s/c) | Value of pD2 (M ± m) [2] | EC50 [2] [µM]
1 | COC(=O)[C@H](Cc1c[nH]c2ccccc12)NC(=O)CC[C@@H]1NC(=O)[C@H](C)NC1=O [Compound 16, Cyclo-L-Ala-L-Glu-(L-Trp-OMe)] | 74.8 | 8.9 ± 0.5 | 67.2 | 8.0 ± 0.5 | – | –
2 | C[C@@H](NC(=O)[C@H](Cc1ccccc1)NC(=O)[C@@H](C)NC(=O)[C@@H](N)Cc1ccc(O)cc1)C(=O)NCCCC[C@@H]1NC(=O)[C@H](CCC(=O)O)NC1=O [Compound 44, Cyclo-[L-Lys(H-Tyr-D-Ala-Phe-D-Ala)-L-Glu(OH)]] (H-Y[dA]F[dA]-X1) | – | – | – | – | 6.15 ± 0.10 | 0.57
3 | COC(=O)[C@H](Cc1c[nH]c2ccccc12)NC(=O)CC[C@@H]1NC(=O)[C@H](CCCCNC(=O)[C@@H](C)NC(=O)[C@H](Cc2ccccc2)NC(=O)[C@@H](C)NC(=O)[C@@H](N)Cc2ccc(O)cc2)NC1=O [Compound 45, Cyclo-[L-Lys(H-Tyr-D-Ala-Phe-D-Ala)-L-Glu(L-Trp-OMe)]] | – | – | – | – | 5.68 ± 0.09 | 2
4 | C[C@@H](NC(=O)[C@H](Cc1ccccc1)NC(=O)[C@@H](C)NC(=O)[C@@H](N)Cc1ccc(O)cc1)C(=O)N[C@@H](Cc1ccc(O)cc1)C(=O)N1CCC[C@H]1C(=O)N[C@@H](CO)C(=O)NCCCC[C@@H]1NC(=O)[C@H](CCC(=O)N[C@@H](Cc2c[nH]c3ccccc23)C(N)=O)NC1=O [Compound 46, Cyclo-[L-Lys(H-Tyr-D-Ala-Phe-D-Ala-Tyr-Pro-Ser)-L-Glu(L-Trp-NH2)]] | – | – | – | – | 7.96 ± 0.02 | 0.011
5 | C[C@@H](NC(=O)[C@H](Cc1ccccc1)NC(=O)[C@@H](C)NC(=O)[C@@H](N)Cc1ccc(O)cc1)C(=O)N[C@@H](Cc1ccc(O)cc1)C(=O)N1CCC[C@H]1C(=O)N[C@@H](CO)C(=O)NCCCC[C@@H]1NC(=O)[C@H](CCC(=O)N[C@@H](Cc2c[nH]c3ccccc23)C(=O)O)NC1=O [Compound 47, Cyclo-[L-Lys(H-Tyr-D-Ala-Phe-D-Ala-Tyr-Pro-Ser)-L-Glu(L-Trp-OH)]] | – | – | – | – | 7.52 ± 0.07 | 0.033
6 | C[C@@H](NC(=O)[C@@H](N)Cc1ccc(O)cc1)C(=O)N[C@@H](Cc1ccccc1)C(=O)NCC(=O)N[C@@H](Cc1ccc(O)cc1)C(=O)N1CCC[C@H]1C(=O)N[C@@H](CO)C(N)=O [Compound 48, H-Tyr-D-Ala-Phe-Gly-Tyr-Pro-Ser-NH2] | – | – | – | – | 8.56 ± 0.12 | 0.0025
7 | C[C@@H](NC(=O)[C@H](Cc1ccccc1)NC(=O)[C@@H](C)NC(=O)[C@@H](N)Cc1ccc(O)cc1)C(=O)N[C@@H](Cc1ccc(O)cc1)C(=O)N1CCC[C@H]1C(=O)N[C@@H](CO)C(N)=O [Compound 49, H-Tyr-D-Ala-Phe-D-Ala-Tyr-Pro-Ser-NH2] (H-Y[dA]F[dA]YPS-NH2) | – | – | – | – | 7.55 ± 0.11 | 0.03
